Measurements: patent publication US8178506B2, “Oligomeric compounds and compositions for use in modulation of small non-coding RNAs” (Regulus Therapeutics Inc., priority 2003, dated 2012)
In the oligonucleotide strings, read from the 5' end, every base follows the letter of its sugar. An asterisk marks phosphorothioate; unmarked linkages are phosphodiester. Other units and linkages are bracketed, terminal groups are in braces. A string of capitals states the bases alone. e = 2'-O-(2-methoxyethyl) (MOE); [5mC] = 5-methylcytosine

What was measured:
adipocytes = assay: Triglyceride accumulation assay in adipocytes; assay type: cell-based, human
aP2 = aP2 mRNA expression in adipocytes (real-time PCR); assay type: cell-based, human; conditions: for AP2 (mRNA expression): adipocytes, 250 nM oligomeric compound, day nine post-transfection, relative to control (1.0); for aP2 mRNA: Table 75
HSL = HSL mRNA expression in adipocytes (real-time PCR); assay type: cell-based, human; conditions: for HSL (mRNA expression): adipocytes, 250 nM oligomeric compound, day nine post-transfection, relative to control (1.0); for HSL mRNA: differentiating adipocytes transfected with oligomeric compound
Glut4 = Glut4 mRNA expression in adipocytes (real-time PCR); assay type: cell-based, human; conditions: for Glut4 (mRNA expression): adipocytes, 250 nM oligomeric compound, day nine post-transfection, relative to control (1.0); for GLUT4 mRNA: differentiating adipocytes transfected with oligomeric compound
PPARγ = PPARγ mRNA expression in adipocytes (real-time PCR); assay type: cell-based, human; conditions: for PPAR gamma (mRNA expression): adipocytes, 250 nM oligomeric compound, day nine post-transfection, relative to control (1.0); for PPAR gamma mRNA: differentiating adipocytes transfected with oligomeric compound
HuVECs = assay: Endothelial tube formation assay in HuVECs; conditions: 75 nM oligomeric compound
[1] = adipocytes, 250 nM oligomeric compound, relative to control (1.0), Table 15
[2] = adipocytes, 250 nM oligomeric compound, relative to control (1.0), Table 16
[3] = differentiating adipocytes transfected with oligomeric compound, Table 75
[4] = differentiating adipocytes transfected with oligomeric compound

Substance	TG (triglyceride accumulation) (adipocytes; [1])	AP2 (mRNA expression) (aP2; Table 15)	HSL (mRNA expression) (HSL; Table 15)	Glut4 (mRNA expression) (Glut4; Table 15)	PPAR gamma (mRNA expression) (PPARγ; Table 15)	% Activity Relative to UTC (tube formation) (HuVECs; Table 57) [%]	TG (triglyceride accumulation) (adipocytes; [3])	aP2 mRNA (aP2; [4])	HSL mRNA (HSL; Table 75)	GLUT4 mRNA (Glut4; Table 75)	PPAR gamma mRNA (PPARγ; Table 75)	also measured
327903 (antisense eA*eA*e[5mC]*eT*eA*eT*eA*e[5mC]*eA*eA*e[5mC]*e[5mC]*eT*eA*e[5mC]*eT*eA*e[5mC]*e[5mC]*eT*e[5mC]*eA) [compound 327903]	1.20	1.15	1.23	1.72	1.19	103.5						TG (triglyceride accumulation) (adipocytes; [2]): 0.58; AP2 (mRNA expression) (aP2; Table 16): 0.92; HSL (mRNA expression) (HSL; Table 16): 0.80; Glut4 (mRNA expression) (Glut4; Table 16): 1.12; PPAR gamma (mRNA expression) (PPARγ; Table 16): 0.98
327900 (antisense e[5mC]*eT*eG*e[5mC]*e[5mC]*eT*eG*eT*e[5mC]*eT*eG*eT*eG*e[5mC]*e[5mC]*eT*eG*e[5mC]*eT*eG*eT) [compound 327900]						55.2	26 percentage of untreated control (UTC)	32 percentage of untreated control (UTC)	21 percentage of untreated control (UTC)	12 percentage of untreated control (UTC)	55 percentage of untreated control (UTC)	
327876 (antisense eA*eA*e[5mC]*eA*e[5mC]*eT*eG*eA*eT*eT*eT*e[5mC]*eA*eA*eA*eT*eG*eG*eT*eG*e[5mC]*eT*eA) [compound 327876]	0.47	0.75	0.47	0.36	0.57							% Activity Relative to UTC (tube formation) (HuVECs; Table 56): 50.0%
327941 (antisense eA*eA*e[5mC]*e[5mC]*e[5mC]*eA*e[5mC]*e[5mC]*eG*eA*e[5mC]*eA*eG*e[5mC]*eA*eA*eT*eG*eA*eA*eT*eG*eT*eT) [compound 327941]	1.31	1.78	1.73	2.07	0.80							TG (triglyceride accumulation) (adipocytes; [2]): 0.42; AP2 (mRNA expression) (aP2; Table 16): 0.88; HSL (mRNA expression) (HSL; Table 16): 0.81; Glut4 (mRNA expression) (Glut4; Table 16): 0.44; PPAR gamma (mRNA expression) (PPARγ; Table 16): 0.86; % Activity Relative to UTC (tube formation) (HuVECs; Table 58): 74.1%
327934 (antisense eG*eG*eT*eA*e[5mC]*eA*eA*eT*e[5mC]*eA*eA*e[5mC]*eG*eG*eT*e[5mC]*eG*eA*eT*eG*eG*eT) [compound 327934]	0.99	1.20	1.02	1.22	0.97							TG (triglyceride accumulation) (adipocytes; [2]): 0.62; AP2 (mRNA expression) (aP2; Table 16): 0.66; HSL (mRNA expression) (HSL; Table 16): 0.64; Glut4 (mRNA expression) (Glut4; Table 16): 0.44; PPAR gamma (mRNA expression) (PPARγ; Table 16): 0.72; % Activity Relative to UTC (tube formation) (HuVECs; Table 58): 51.9%
327916 (antisense eT*eG*eG*e[5mC]*eA*eT*eT*e[5mC]*eA*e[5mC]*e[5mC]*eG*e[5mC]*eG*eT*eG*e[5mC]*e[5mC]*eT*eT*eA*eA) [compound 327916]						96.6	56 percentage of untreated control (UTC)	67 percentage of untreated control (UTC)	64 percentage of untreated control (UTC)	51 percentage of untreated control (UTC)	71 percentage of untreated control (UTC)	
327902 (antisense eG*eG*e[5mC]*eT*eG*eT*e[5mC]*eA*eA*eT*eT*e[5mC]*eA*eT*eA*eG*eG*eT*e[5mC]*eA*eG) [compound 327902]						41.4	55 percentage of untreated control (UTC)	58 percentage of untreated control (UTC)	56 percentage of untreated control (UTC)	15 percentage of untreated control (UTC)	56 percentage of untreated control (UTC)	
327956 (antisense e[5mC]*eA*e[5mC]*eA*eG*eT*eT*eG*e[5mC]*e[5mC]*eA*eG*e[5mC]*eT*eG*eA*eG*eA*eT*eT*eA) [compound 327956]												TG (triglyceride accumulation) (adipocytes; [4]): 80 percentage of untreated control (UTC); AP2 mRNA (aP2; [4]): 102 percentage of untreated control (UTC); HSL mRNA (HSL): 90 percentage of untreated control (UTC); GLUT4 mRNA (Glut4): 69 percentage of untreated control (UTC); PPAR gamma mRNA (PPARγ): 91 percentage of untreated control (UTC); % Activity Relative to UTC (tube formation) (HuVECs; Table 59): 46.7%
327910 (antisense eT*eG*eA*eT*eA*eG*e[5mC]*e[5mC]*e[5mC]*eT*eG*eT*eA*e[5mC]*eA*eA*eT*eG*e[5mC]*eT*eG*e[5mC]*eT) [compound 327910]						55.2	24 percentage of untreated control (UTC)	35 percentage of untreated control (UTC)	32 percentage of untreated control (UTC)	16 percentage of untreated control (UTC)	39 percentage of untreated control (UTC)	
327907 (antisense eA*eG*e[5mC]*e[5mC]*eT*eA*eT*e[5mC]*e[5mC]*eT*eG*eG*eA*eT*eT*eA*e[5mC]*eT*eT*eG*eA*eA) [compound 327907]						62.1	19 percentage of untreated control (UTC)	29 percentage of untreated control (UTC)	21 percentage of untreated control (UTC)	6 percentage of untreated control (UTC)	49 percentage of untreated control (UTC)	
327906 (antisense eT*e[5mC]*eA*eT*eA*eG*e[5mC]*e[5mC]*e[5mC]*eT*eG*eT*eA*e[5mC]*eA*eA*eT*eG*e[5mC]*eT*eG*e[5mC]*eT) [compound 327906]						69.0	25 percentage of untreated control (UTC)	46 percentage of untreated control (UTC)	37 percentage of untreated control (UTC)	14 percentage of untreated control (UTC)	50 percentage of untreated control (UTC)	
